Assay results from patent US20100003711A1, “Methods to identify therapeutic agents” (THE SCRIPPS RESEARCH INSTITUTE, priority 2005, published 2010).

What was measured:
[1] = test system: WI-L2 human B-lymphocyte line; assay: LDH release cytotoxicity assay, WI-L2; format: cell-based; conditions: B-cell (WI-L2) cell line, concentration range of FIG. 6A (0-100 μM)
Protocol: (§1) Cytotoxicity assays. WI-L2 human B-lymphocyte line, HAAE-1 human abdominal aortic endothelial line, MH-S murine alveolar macrophage line, and J774A.1 murine tissue macrophage line were obtained from the ATCC. Human aortic endothelial cells (HAEC) and human vascular smooth muscle cells (VSMS) were obtained from Cambrex Bio Science. Jurkat E6-1T-lymphocytes were kindly provided by Dr. J. Kaye (The Scripps Research Institute). Cells were cultured in ATCC-recommended media with 10% fetal calf serum. Cells were incubated in a controlled atmosphere at 37° C., with 5 or 7% CO2. For lactate dehydrogenase (LDH) release assays, adherent cells were harvested either by addition of 0.05% trypsin/EDTA or by scraping. The cells obtained were seeded onto 96-well microtiter plates (25,000 cells/well) and allowed to recover for 24-48 h. […] Cytotoxicity was then determined by measuring lactate dehydrogenase (LDH) release from cells in culture. […] 100% Cytotoxicity was defined as the maximum amount of LDH released by dead cells as shown by trypan blue exclusion, or the highest amount of LDH detected upon lysis of cells by 0.9% Triton X-100. The IC50 values were determined by comparison of the raw duplicate data for concentration versus cytotoxicity (%) to non-linear regression analysis (Hill plot) using Graphpad v3.0 software for Macintosh. […]

[2] = test system: ICAM-1 (CD54); assay: Endothelial adhesion molecule expression by ELISA, ICAM-1; format: cell-based, human; conditions: HAAE-1, not complexed with LDL
Protocol: (§2) Endothelial cell surface adhesion molecule expression was measured by ELISA, using anti-human CD54 (ICAM-1), CD106 (VCAM-1) and CD62E (E-Selectin) antibodies (Leinco Technologies, Inc., St. Louis, Mo.). The ELISA method was modified from previously described procedures.
(§3) Cells were then incubated with antibodies to VCAM-1, E-selectin, or ICAM-1 diluted 1:400 in PBS containing 5% FCS at 37° C. for 30 min. Wells were washed two times with PBS, then incubated with horseradish peroxidase (HRP)-conjugated goat anti-mouse IgG (Southern Biotechnology Associates, Birmingham, Ala., USA) in PBS/5% FCS at 37° C. for 30 min. The wells were washed four times with PBS, then incubated with H2O2/3,3′,5,5′-tetramethyl-benzidine peroxidase substrate (Pierce Chemical, Rockford, Ill., USA) for 30 min in the dark. The reaction was stopped by adding 25 μl of 8 N H2SO4, and the plates read on a microplate reader, blanking on wells stained with only secondary antibody. Each assay was performed in triplicate and the data are reported as the mean±SEM as a percentage of the expression level of the vehicle. To study the effect of cholesterol ozonation product 5a concentration (5-50 μM) on E-selectin expression, the assay was performed in an identical fashion as described above, with each point being the mean±SEM of at least duplicate measurements.

[3] = test system: T-lymphocyte cell line (Jurkat E6.1); assay: LDH release cytotoxicity assay, Jurkat; format: cell-based; conditions: concentration range of FIG. 6B (0-100 μM)
Protocol: as §1

[4] = test system: THP-1 monocytes; assay: Monocyte morphology changes (differentiation into macrophages); format: cell-based, human; conditions: 12.5 or 25 μM, up to 7 days
Protocol: THP-1 monocytes in suspension were plated in 8-well chambered slides. […] Media containing appropriate treatment compounds was replaced after 4 days. After 4 days treatment, morphologic changes of the adherent cells were assessed by phase-contrast microscopy and photographed using an Olympus Microfire digital camera.

[5] = test system: VCAM-1 (CD106); assay: Endothelial adhesion molecule expression by ELISA, VCAM-1; format: cell-based, human; conditions: HAAE-1, not complexed with LDL
Protocol: as §2, §3

[6] = test system: E-selectin (CD62E); assay: Endothelial adhesion molecule expression by ELISA, E-selectin; format: cell-based, human; conditions: HAAE-1, not complexed with LDL
Protocol: as §2, §3

Compound: CC(C)CCC[C@@H](C)[C@H]1CC[C@H]2[C@@H]3CC=C4C[C@@H](O)CC[C@]4(C)[C@H]3CC[C@]12C [compound 3, cholesterol, reference compound]
- cytotoxicity [1]: No cytotoxicity
- integrin expression (ICAM-1) [2]: no effects
- cytotoxicity [3]: No cytotoxicity
- THP-1 monocyte differentiation into macrophages (adherence, morphology) [4]: neither became adherent nor developed the aforementioned morphological changes
- integrin expression (VCAM-1) [5]: no effects
- selectin (E-selectin) expression [6]: no effects
